Assay results reported in patent US5084563A, “Crystalline 2-O-α-D-glucopyranosyl-L-ascorbic acid, and its preparation and uses” (priority 1989, dated 1992).

Tests used:
Dissociation constant = assay type: physicochemical
Source text: (10) Dissociation constant The pKa is 3.0.

physchem = assay type: physicochemical; conditions: for remaining at 1 h, 70 µM / remaining at 2 h, 70 µM / remaining at 4 h, 70 µM / remaining at 18 h, 70 µM / remaining at 24 h, 70 µM: aqueous solution; for Remaining ratio: 0 min, 70 uM
Description: 2-O-α-D-Glucosyl-L-ascorbic acid was compared respectively to the 6-O-α-D-glucosyl-L-ascorbic acid disclosed in Japanese Patent Publication No. 38,158/73, and L-ascorbic acid for their stability in aqueous solution. More particularly, each sample was adjusted to a concentration of 70 micromoles and to pH 7.0 or 2.0, placed in a cuvette, and measured for its absorbance at either 260 nm and pH 7.0 or at 245 nm and pH 2.0 while keeping the solution at 45° C. The remaining ratio (%) was calculated with the absorbance.

[1] = Physical properties: hygroscopicity, deliquescence, loss on drying; assay type: physicochemical; conditions: for Hygroscopicity and deliquescence: ambient conditions
Description: (12) Physical properties and color: Colorless and transparent crystal. […] Loss on drying at 130° C. for 2 hours is less than 0.5 w/w %. FIG. 5 is the microscopic view of a crystal growing in a supersaturated solution.

[2] = Hydrolysis with 1N hydrochloric acid; assay type: physicochemical; conditions: 100° C., 5 minutes, products at molar ratio 1:1
Description: (§1) (14) Structual element: Hydrolyzable by α-glucosidase or by treatment with 1N hydrochloric acid at 100° C. for 5 minutes to form L-ascorbic acid and D-glucose at a molar ratio of 1:1.

dd mice = assay: Acute toxicity, oral; assay type: in vivo
Source text: A crystalline 2-O-α-D-glucopyranosyl-L-ascorbic acid specimen, prepared by the method in Experiment 1, was orally administered to 7 week-old dd mice for acute toxicity test. As the result, no mouse died when administered with up to […] of the specimen, and higher dose was difficult.

α-glucosidase = assay: Hydrolysis by α-glucosidase; assay type: biochemical; conditions: products at molar ratio 1:1
Description: as §1

Solubility in solvents = assay type: physicochemical
Solubility in water = assay type: physicochemical; conditions: 25° C.
[3] = Coloring reaction: direct reducing activity; assay type: biochemical; conditions: 2,6-dichlorophenolindophenol

SMILES	remaining at 1 h, 70 µM (physchem; pH 2) [%]	remaining at 2 h, 70 µM (physchem; pH 2) [%]	remaining at 4 h, 70 µM (physchem; pH 2) [%]	remaining at 18 h, 70 µM (physchem; pH 2) [%]	remaining at 24 h, 70 µM (physchem; pH 2) [%]	remaining at 1 h, 70 µM (physchem; pH 7) [%]	remaining at 2 h, 70 µM (physchem; pH 7) [%]	remaining at 4 h, 70 µM (physchem; pH 7) [%]	remaining at 18 h, 70 µM (physchem; pH 7) [%]	remaining at 24 h, 70 µM (physchem; pH 7) [%]	Remaining ratio (physchem; pH 2) [%]	Remaining ratio (physchem; pH 7) [%]	Hygroscopicity and deliquescence [1]	further results
O=C1O[C@H]([C@@H](O)CO)C(O)=C1O[C@H]1O[C@H](CO)[C@@H](O)[C@H](O)[C@H]1O [2-O-α-D-glucopyranosyl-L-ascorbic acid]	100	100	100	100	100	100	100	100	100	100	–	–	–	pKa (Dissociation constant): 3
O=C1O[C@H]([C@@H](O)CO[C@H]2O[C@H](CO)[C@@H](O)[C@H](O)[C@H]2O)C(O)=C1O [6GAsA, 6-O-α-D-glucosyl-L-ascorbic acid]	99	98	90	25	12	88	72	43	7	4	100	100	–	–
O=C1O[C@H]([C@@H](O)CO)C(O)=C1O [AsA, L-ascorbic acid]	98	95	88	12	4	80	61	32	1	1	100	100	–	–
O=C1O[C@H]([C@@H](O)CO)C(O)=C1O[C@H]1O[C@H](CO)[C@@H](O)[C@H](O)[C@H]1O [amorphous 2-O-α-D-glucopyranosyl-L-ascorbic acid] [reference compound]	–	–	–	–	–	–	–	–	–	–	–	–	strongly hygroscopic	–
O=C1O[C@H]([C@@H](O)CO)C(O)=C1O[C@H]1O[C@H](CO)[C@@H](O)[C@H](O)[C@H]1O [crystalline 2-O-α-D-glucopyranosyl-L-ascorbic acid]	–	–	–	–	–	–	–	–	–	–	100	100	Free of hygroscopicity and deliquescence	Hydrolysis to L-ascorbic acid and D-glucose [2]: Hydrolyzable; Dose up to which no mouse died (dd mice; 7 week-old dd mice, higher dose was difficult): up to 5 g; Mortality (dd mice; 7 week-old dd mice, up to 5 g of the specimen): no mouse died; Toxicity (dd mice; dd mice, overall conclusion): extremely low in toxicity; Hydrolysis to L-ascorbic acid and D-glucose (α-glucosidase): Hydrolyzable; Solubility in solvents (Solubility in solvents; 0.1N acetic acid): Readily soluble; Solubility in solvents (Solubility in solvents; 0.1N sodium hydroxide): Readily soluble; Solubility in solvents (Solubility in solvents; benzene): insoluble; Solubility in solvents (Solubility in solvents; chloroform): insoluble; Solubility in solvents (Solubility in solvents; ethanol): soluble; Solubility in solvents (Solubility in solvents; ether): insoluble; Solubility in solvents (Solubility in solvents; ethyl acetate): insoluble; Solubility in solvents (Solubility in solvents; methanol): soluble; Solubility in solvents (Solubility in solvents; water): Readily soluble; Solubility (Solubility in water): One hundred and twenty-five; Loss on drying ([1]; 130° C., 2 hours): less than 0.5 w/w %; Direct reducing activity [3]: no direct reducing activity
